Results from PMC9267128, “New 2-[(4-Amino-6-N-substituted-1,3,5-triazin-2-yl)methylthio]-N-(imidazolidin-2-ylidene)-4-chloro-5-methylbenzenesulfonamide Derivatives, Design, Synthesis and Anticancer Evaluation” (International Journal of Molecular Sciences, 2022).

Columns and labels:
[1] = test system: HCT-116 (colon cancer); experiment: MTT cell viability assay, HCT-116; format: cell-based, human; conditions: for IC50: MTT assay, 72 h of incubation
Experimental: (§1) Analysis was performed using an MTT assay after 72 h of incubation.
(§2) All chemicals, if not stated otherwise, were obtained from Sigma–Aldrich (St. Louis, MO, USA). The HCT-116 cell line was purchased from ATCC (ATCC-No: CCL-247), while the MCF-7, HeLa and HaCaT cell lines were purchased from Cell Lines Services (Eppelheim, Germany). Cells were cultured in Dulbecco’s modified Eagle’s medium (DMEM) supplemented with 10% fetal bovine serum, 2 mM glutamine, 100 units/mL penicillin and 100 µg/mL streptomycin. Cultures were maintained in a humidified atmosphere with 5% carbon dioxide at 37 °C in an incubator (Heraceus, HeraCell).
(§3) Cell viability was examined using the MTT [3-(4,5-dimethylthiazol-2-yl)-2,5-diphenyltetrazolium bromide] assay. Cells were seeded in 96-well plates at a density of 3 × 10^3 cells/well and treated for 72 h with the tested compounds in the concentration range of 1–100 µM. Then, MTT (0.5 mg/mL) was added to the medium and cells were further incubated for 2 h at 37 °C. In the next stage, cells were lysed with DMSO and the absorbance of the formazan solution was measured at 550 nm with a plate reader (1420 multilabel counter, Victor, Jügesheim, Germany). The experiment was performed in triplicate. Values are expressed as the mean ± SD of at least three independent experiments.

[2] = test system: HaCaT (human keratinocyte cell line); experiment: MTT cell viability assay, non-cancerous HaCaT; format: cell-based; conditions: Homo sapiens, HaCaT, 72 h, 72 h of incubation, non-cancerous keratinocytes
Experimental: (§4) Compounds 20–162 were evaluated in vitro for their effects on the viability of three cancer cell lines: HCT-116 (colon cancer), MCF-7 (breast cancer) and HeLa (cervical cancer), as well as the non-cancerous keratinocyte cell line (HaCaT). […] Analysis was performed using an MTT assay after 72 h of incubation.
as §2
as §3, with “experiments. Cisplatin was used as a positive control.” for “experiments.”

[3] = test system: HeLa (cervical cancer); experiment: MTT cell viability assay, HeLa; format: cell-based, human; conditions: for IC50: Homo sapiens, HeLa, MTT assay, 72 h of incubation
Experimental: as §1, §2, §3

[4] = test system: MCF-7 (breast cancer); experiment: MTT cell viability assay, MCF-7; format: cell-based, human; conditions: for IC50: Homo sapiens, MCF7, 72 h, MTT assay, 72 h of incubation
Experimental: as §4, §2
as §3, with “experiments. Cisplatin was used as a positive control.” for “experiments.”

| SMILES | IC50 ([1]; Homo sapiens, HCT-116, 72 h) [µM] | IC50 [3] [µM] | IC50 [4] [µM] | IC50 [1] [µM] | IC50 [2] [µM] | Selectivity Index (SI) HCT-116 ([1]; IC50 value toward HaCaT cells/IC50 value toward HCT-116) | Selectivity Index (SI) HeLa ([3]; IC50 value toward HaCaT cells/IC50 value toward HeLa) | Selectivity Index (SI) MCF-7 ([4]; IC50 value toward HaCaT cells/IC50 value toward MCF-7) |
| --- | --- | --- | --- | --- | --- | --- | --- | --- |
| Cc1cc(S(=O)(=O)N=C2NCCN2Cc2ccccc2)c(SCc2nc(N)nc(N3CCN(c4ccc(F)cc4)CC3)n2)cc1Cl [Compound 58] | 11 ± 0.3 | 14 ± 2 | 17 ± 1 | – | 29 ± 1 | – | – | – |
| Cc1cc(S(=O)(=O)N=C2NCCN2Cc2ccccc2)c(SCc2nc(N)nc(N3CCN(c4ccccc4F)CC3)n2)cc1Cl [Compound 59] | 13 ± 0.3 | 15 ± 1 | 18 ± 1 | – | 30 ± 1 | – | – | – |
| Cc1cc(S(=O)(=O)N=C2NCCN2Cc2ccccc2)c(SCc2nc(N)nc(N3CCN(c4ccc(C(F)(F)F)cc4)CC3)n2)cc1Cl [Compound 60] | 8 ± 0.3 | 9 ± 0.5 | 14 ± 0.3 | – | 23 ± 1 | – | – | – |
| Cc1cc(S(=O)(=O)N=C2NCCN2Cc2ccccc2)c(SCc2nc(N)nc(N3CCN(c4ccc(Cl)c(Cl)c4)CC3)n2)cc1Cl [Compound 64] | 11 ± 0.4 | 15 ± 1 | 14 ± 0.5 | – | 28 ± 1 | – | – | – |
| COc1ccccc1N1CCN(c2nc(N)nc(CSc3cc(Cl)c(C)cc3S(=O)(=O)N=C3NCCN3Cc3ccccc3)n2)CC1 [Compound 66] | 12 ± 0.4 | 20 ± 1 | 29 ± 1 | – | 36 ± 2 | – | – | – |
| Cc1cc(S(=O)(=O)N=C2NCCN2Cc2ccccc2)c(SCc2nc(N)nc(N3CCN(Cc4ccccc4)CC3)n2)cc1Cl [Compound 68] | 16 ± 0.5 | 14 ± 0.5 | 16 ± 0.5 | – | 32 ± 2 | – | – | – |
| Cc1cc(S(=O)(=O)N=C2NCCN2Cc2cccc3ccccc23)c(SCc2nc(N)nc(N3CCc4ccccc43)n2)cc1Cl [Compound 74] | 44 ± 2 | 13 ± 0.5 | 12 ± 0.6 | – | 81 ± 4 | – | – | – |
| Cc1cc(S(=O)(=O)N=C2NCCN2Cc2cccc3ccccc23)c(SCc2nc(N)nc(Nc3ccccc3)n2)cc1Cl [Compound 75] | 30 ± 2 | 77 ± 5 | 8 ± 0.5 | – | 110 ± 5 | – | – | – |
| Cc1cc(S(=O)(=O)N=C2NCCN2Cc2cccc3ccccc23)c(SCc2nc(N)nc(N(C)c3ccc(Cl)cc3)n2)cc1Cl [Compound 76] | 46 ± 1 | 28 ± 2 | 25 ± 1 | – | 99 ± 4 | – | – | – |
| Cc1cc(S(=O)(=O)N=C2NCCN2Cc2cccc3ccccc23)c(SCc2nc(N)nc(N3CCN(c4ccccc4)CC3)n2)cc1Cl [Compound 77] | 40 ± 1 | 110 ± 5 | 29 ± 1 | – | 220 ± 11 | – | – | – |

Second part, led by results:

| IC50 ([1]; Homo sapiens, HCT-116, 72 h) [µM] | IC50 [3] [µM] | IC50 [4] [µM] | IC50 [1] [µM] | SMILES | IC50 [2] [µM] | Selectivity Index (SI) HCT-116 ([1]; IC50 value toward HaCaT cells/IC50 value toward HCT-116) | Selectivity Index (SI) HeLa ([3]; IC50 value toward HaCaT cells/IC50 value toward HeLa) | Selectivity Index (SI) MCF-7 ([4]; IC50 value toward HaCaT cells/IC50 value toward MCF-7) |
| --- | --- | --- | --- | --- | --- | --- | --- | --- |
| 8 ± 0.1 | 102 ± 2 | 8 ± 0.2 | – | Cc1cc(S(=O)(=O)N=C2NCCN2Cc2ccccc2)c(SCc2nc(N)nc(N3CCN(c4ccccc4)CC3)n2)cc1Cl [Compound 57] | 48 ± 2 | – | – | – |
| 6.5 ± 0.1 | 10 ± 0.2 | 9 ± 0.3 | – | Cc1cc(S(=O)(=O)N=C2NCCN2Cc2ccccc2)c(SCc2nc(N)nc(N3CCN(c4cccc(C(F)(F)F)c4)CC3)n2)cc1Cl [Compound 61] | 21 ± 1 | – | – | – |
| 7 ± 0.1 | 12 ± 0.5 | 9 ± 0.5 | – | Cc1cc(S(=O)(=O)N=C2NCCN2Cc2ccccc2)c(SCc2nc(N)nc(N3CCN(c4cccc(Cl)c4)CC3)n2)cc1Cl [Compound 63] | 24 ± 1 | – | – | – |
| 7 ± 0.2 | 11 ± 0.3 | 11 ± 0.5 | – | Cc1cc(S(=O)(=O)N=C2NCCN2Cc2ccccc2)c(SCc2nc(N)nc(N3CCN(c4ccc(F)c(Cl)c4)CC3)n2)cc1Cl [Compound 65] | 23 ± 1 | – | – | – |
| 6.5 ± 0.1 | 17 ± 0.5 | 9 ± 0.5 | – | Cc1cc(S(=O)(=O)N=C2NCCN2Cc2ccccc2)c(SCc2nc(N)nc(N3CCC(Cc4ccccc4)CC3)n2)cc1Cl [Compound 72] | 28 ± 1 | – | – | – |
| < 6 | 14 ± 0.3 | 7.5 ± 0.3 | 5.2 ± 0.2 | Cc1cc(S(=O)(=O)N=C2NCCN2Cc2ccccc2)c(SCc2nc(N)nc(N3CC=C(c4ccc(F)cc4)CC3)n2)cc1Cl [Compound 73] | 29 ± 1 | 5.5 | 2.0 | 3.8 |
